This is an account of results in patent US10081662B2, “Modified relaxin B chain peptides” (The Florey Institute of Neuroscience and Mental Health, priority 2014, dated 2018).

Peptide text beside a SMILES is read from it.

What all share (assay type): cell-based
The target of assay [1] is T1, RXFP2 (Homo sapiens, UniProt Q8WXD0).
T1 construct: expressed in transfected cells; host or cells: HEK-293T
As to the kind of experiment: cAMP reporter gene assay in HEK-293T cells transfected with RXFP2. As to conditions: RXFP1- vs RXFP2-expressing HEK-293T cells; FIG. 3. The protocol:
The ability of the relaxin-2 B chain peptide derivatives generated in Example 1 to stimulate cAMP response was also evaluated, using a cAMP reporter gene assay as described previously (Scott et al., 2006, J Biol Chem. 281, 34942-34954). HEK-293T cells co-transfected with either RXFP1 or RXFP2, or 7BP cells, and a pCRE β-galactosidase reporter plasmid were plated in 96-well plates. After 24 hours, the co-transfected cells were incubated with increasing concentrations of peptides in parallel to 10 nM of H2 relaxin or INSL3 for RXFP1- or RXFP2-transfected cells respectively. The amount of cAMP-driven β-galactosidase expression in each well was assessed with a colorimetric assay measuring absorbance at 570 nm on a microplate spectrophotometer. Ligand-induced cAMP stimulation was expressed as a percentage of maximal response of H2 relaxin or INSL3 for RXFP1 and RXFP2 cells respectively. Each data point was measured in triplicate and each experiment conducted independently at least three separate times. Statistical differences in pEC50 values were analyzed using one-way ANOVA coupled to Newman Keul's multiple comparison test for multiple group comparisons in GraphPad Prism 6.
In general terms: A reporter such as luciferase makes a cellular process visible.

For assay [2], the system named is MMP-2. As to the kind of experiment: MMP-2 expression by gelatin zymography in rat renal myofibroblasts. Conditions: 16.80 nM, gelatin zymography and densitometry. The protocol:
Renal myofibroblast cells natively expressing human RXFP1 were plated out onto 12-well plates with a density of 50 000 cells per well. Cells were treated with 16.8 nM H2-relaxin and 16.80 nM B7-33 C11.23S. Expression of basal MMP-2 levels was monitored with no treatment applied to wells (control). Each treatment was carried out in duplicates (n=5), for each replicate in Dulbecco's modified Eagle's medium (DMEM) containing 10% fetal calf serum, 2.2% HEPES buffer, 1% L-glutamine and 2% penicillin/strepticillin. The cells were incubated over 48 hrs in a humidified chamber with 5% CO2 at 37.8° C. temperature. Following this, media was aspirated off and experiment continued in serum free media (DMEM containing 2.2% HEPES buffer, 1% L-glutamine, 2% penicillin/strepicillin and 2% lactalbumin hydrolysate) for a further 24 hours in a humidified chamber with 5% CO2 at 37.8° C. […]. Media were then collected from various treatments and gel zymography was carried out.
For determination of MMP-2 expression within various treatments, zymographic assays of gelatinases were carried out. […] (0.05M Tris-HCl pH 7.4, 0.01M CaCl2, 5% Triton X-100, 0.02% sodium azide, 1 μM ZnCl2. The gels were then stained with 0.1% Cootnassie blue containing 40% 2-propanol and destained with 7% acetic acid before analysed by ImageJ software.

In assay [3] the test system is MMP-2. As to the kind of experiment: MMP-2 expression by gelatin zymography in human cardiac fibroblasts. As to conditions: gelatin zymography and densitometry.

T1 sequence (Q8WXD0 whole entry): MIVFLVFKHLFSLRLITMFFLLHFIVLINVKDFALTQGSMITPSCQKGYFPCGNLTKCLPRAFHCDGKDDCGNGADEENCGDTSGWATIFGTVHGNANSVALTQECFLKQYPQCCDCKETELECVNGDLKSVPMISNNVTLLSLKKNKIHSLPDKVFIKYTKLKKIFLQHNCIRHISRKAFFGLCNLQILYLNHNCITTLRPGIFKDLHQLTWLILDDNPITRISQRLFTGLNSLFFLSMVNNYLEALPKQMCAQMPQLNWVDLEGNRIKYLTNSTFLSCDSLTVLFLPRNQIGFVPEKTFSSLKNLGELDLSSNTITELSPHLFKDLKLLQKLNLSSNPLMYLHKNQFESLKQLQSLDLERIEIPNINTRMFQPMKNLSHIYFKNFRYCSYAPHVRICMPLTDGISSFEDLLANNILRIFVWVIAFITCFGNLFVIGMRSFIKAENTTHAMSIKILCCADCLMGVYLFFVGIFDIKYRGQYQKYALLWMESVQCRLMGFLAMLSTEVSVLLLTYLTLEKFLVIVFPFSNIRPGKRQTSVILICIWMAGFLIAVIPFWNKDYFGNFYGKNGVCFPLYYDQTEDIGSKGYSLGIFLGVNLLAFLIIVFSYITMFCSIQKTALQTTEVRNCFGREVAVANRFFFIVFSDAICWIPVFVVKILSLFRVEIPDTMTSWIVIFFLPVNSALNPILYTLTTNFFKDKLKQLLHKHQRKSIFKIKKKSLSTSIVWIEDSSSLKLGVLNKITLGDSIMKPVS

As for `CC[C@H](C)[C@H](NC(=O)[C@H](C)NC(=O)[C@@H](NC(=O)[C@H](CCC(N)=O)NC(=O)[C@H](C)NC(=O)[C@H](CCCNC(=N)N)NC(=O)[C@@H](NC(=O)[C@H](CC(C)C)NC(=O)[C@H](CCC(=O)O)NC(=O)[C@H](CCCNC(=N)N)NC(=O)CNC(=O)[C@H](CO)NC(=O)[C@H](CC(C)C)NC(=O)[C@H](CCCCN)NC(=O)[C@@H](NC(=O)[C@@H](N)C(C)C)[C@@H](C)CC)C(C)C)[C@@H](C)CC)C(=O)N[C@@H](CO)C(=O)NCC(=O)N[C@@H](CCSC)C(=O)N[C@@H](CO)C(=O)N[C@H](C(=O)N[C@@H](Cc1c[nH]c2ccccc12)C(=O)N[C@@H](CO)C(=O)N[C@@H](CCCCN)C(=O)N[C@@H](CCCNC(=N)N)C(=O)N[C@@H](CO)C(=O)N[C@@H](CC(C)C)C(N)=O)[C@@H](C)O` [B7-33 C11.23S] (H-VIKLSGRELVRAQIAISGMSTWSKRSL-NH2), in assay [1], the “Selectivity of cAMP stimulation, RXFP1 over RXFP2” value is recorded as “selective at RXFP1 over RXFP2”. Further, the “Induction of MMP-2 expression” value in assay [2] and in assay [3] was “levels similar to those induced by the native H2 relaxin” throughout.
